Experimental data as given in PubChem BioAssay (NCI).
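Assay format: 96-well plates, 48-hour exposure. The concentration for 50% growth inhibition is given as GI50. TGI marks complete inhibition of growth.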

What was measured:
Experiment in all cases: growth of human tumour cells (NCI), 48 h; in the data active = GI50 below about 0.43 µM; inactive = the rest
SN12C renal = test system: SN12C renal
OVCAR-8 ovarian = test system: OVCAR-8 ovarian
SK-MEL-2 melanoma = test system: SK-MEL-2 melanoma
MDA-MB-231 breast = test system: MDA-MB-231 breast
SK-OV-3 ovarian = test system: SK-OV-3 ovarian
ACHN renal = test system: ACHN renal
A549 NSCLC = test system: A549 NSCLC
K-562 leukemia = test system: K-562 leukemia
KM12 colon = test system: KM12 colon
HCT-15 colon = test system: HCT-15 colon
NCI-H226 lung = test system: NCI-H226 lung
PC-3 prostate = test system: PC-3 prostate
CAKI-1 renal = test system: CAKI-1 renal
T-47D breast = test system: T-47D breast
A498 renal = test system: A498 renal
HOP-62 NSCLC = test system: HOP-62 NSCLC
HS 578T breast = test system: HS 578T breast
786-0 renal = test system: 786-0 renal
OVCAR-3 ovarian = test system: OVCAR-3 ovarian
NCI/ADR-RES ovarian = test system: NCI/ADR-RES ovarian
NCI-H23 lung = test system: NCI-H23 lung
SK-MEL-28 melanoma = test system: SK-MEL-28 melanoma
SNB-19 CNS = test system: SNB-19 CNS
SW-620 colon = test system: SW-620 colon
SK-MEL-5 melanoma = test system: SK-MEL-5 melanoma
IGROV1 ovarian = test system: IGROV1 ovarian
HCT-116 colon = test system: HCT-116 colon
MCF7 breast = test system: MCF7 breast
UACC-257 melanoma = test system: UACC-257 melanoma
CCRF-CEM leukemia = test system: CCRF-CEM leukemia
BT-549 breast = test system: BT-549 breast
HOP-92 NSCLC = test system: HOP-92 NSCLC
SR leukemia = test system: SR leukemia
COLO 205 colon = test system: COLO 205 colon
UO-31 renal = test system: UO-31 renal
MALME-3M melanoma = test system: MALME-3M melanoma
NCI-H460 lung = test system: NCI-H460 lung
OVCAR-5 ovarian = test system: OVCAR-5 ovarian
LOX IMVI melanoma = test system: LOX IMVI melanoma
TK-10 renal = test system: TK-10 renal
SF-268 CNS = test system: SF-268 CNS
SNB-75 CNS = test system: SNB-75 CNS
UACC-62 melanoma = test system: UACC-62 melanoma
HL-60(TB) leukemia = test system: HL-60(TB) leukemia
SF-295 CNS = test system: SF-295 CNS
HT29 colon = test system: HT29 colon
M14 melanoma = test system: M14 melanoma
NCI-H522 lung = test system: NCI-H522 lung
MOLT-4 leukemia = test system: MOLT-4 leukemia
DU-145 prostate = test system: DU-145 prostate
SF-539 CNS = test system: SF-539 CNS
EKVX NSCLC = test system: EKVX NSCLC
U251 CNS = test system: U251 CNS
HCC-2998 colon = test system: HCC-2998 colon
OVCAR-4 ovarian = test system: OVCAR-4 ovarian

COc1ccc2[nH]c(-c3ccccc3)c(/C=C(\C#N)S(=O)(=O)c3ccccc3)c2c1
7.11 µM: TGI (HL-60(TB) leukemia)
15.7 µM: TGI (SR leukemia)
36.3 µM: TGI (HOP-92 NSCLC)
60.7 µM: TGI (UACC-62 melanoma)
28.7 µM: TGI (SF-295 CNS)
20.3 µM: TGI (SK-MEL-2 melanoma)
46.7 µM: TGI (NCI-H522 lung)
34.5 µM: TGI (UO-31 renal)
44.8 µM: TGI (SNB-75 CNS)
29.3 µM: TGI (SK-MEL-5 melanoma)
inactive: GI50 (SN12C renal) 7.76 µM | GI50 (OVCAR-8 ovarian) 7.96 µM | GI50 (SK-MEL-2 melanoma) 3.7 µM | GI50 (MDA-MB-231 breast) 7.48 µM | GI50 (SK-OV-3 ovarian) 7.05 µM | GI50 (ACHN renal) 12.9 µM | GI50 (A549 NSCLC) 5.98 µM | GI50 (K-562 leukemia) 1.42 µM | GI50 (KM12 colon) 2.96 µM | GI50 (HCT-15 colon) 4.02 µM | GI50 (NCI-H226 lung) 9.41 µM | GI50 (PC-3 prostate) 8.3 µM | GI50 (CAKI-1 renal) 4.47 µM | GI50 (T-47D breast) 5.18 µM | GI50 (A498 renal) 9.31 µM | GI50 (HOP-62 NSCLC) 8.38 µM | GI50 (HS 578T breast) 7.59 µM | GI50 (786-0 renal) 6.07 µM | GI50 (OVCAR-3 ovarian) 4.96 µM | GI50 (NCI/ADR-RES ovarian) 3.83 µM | GI50 (NCI-H23 lung) 7.97 µM | GI50 (SK-MEL-28 melanoma) 6.05 µM | GI50 (SNB-19 CNS) 13.5 µM | GI50 (SW-620 colon) 3.97 µM | GI50 (SK-MEL-5 melanoma) 3.05 µM | GI50 (IGROV1 ovarian) 4.79 µM | GI50 (HCT-116 colon) 3.74 µM | GI50 (MCF7 breast) 3.93 µM | GI50 (UACC-257 melanoma) 4.92 µM | GI50 (CCRF-CEM leukemia) 6.52 µM | GI50 (BT-549 breast) 11.6 µM | GI50 (HOP-92 NSCLC) 6.05 µM | GI50 (SR leukemia) 2.21 µM | GI50 (COLO 205 colon) 7.35 µM | GI50 (UO-31 renal) 4.03 µM | GI50 (MALME-3M melanoma) 19.4 µM | GI50 (NCI-H460 lung) 4.55 µM | GI50 (OVCAR-5 ovarian) 37.3 µM | GI50 (LOX IMVI melanoma) 7.4 µM | GI50 (TK-10 renal) 17.5 µM | GI50 (SF-268 CNS) 13.3 µM | GI50 (SNB-75 CNS) 5.92 µM | GI50 (UACC-62 melanoma) 3.83 µM | GI50 (HL-60(TB) leukemia) 2.38 µM | GI50 (SF-295 CNS) 2.79 µM | GI50 (HT29 colon) 3.49 µM | GI50 (M14 melanoma) 3.72 µM | GI50 (NCI-H522 lung) 3.98 µM | GI50 (MOLT-4 leukemia) 4.7 µM | GI50 (DU-145 prostate) 10.1 µM | GI50 (SF-539 CNS) 5.48 µM | GI50 (EKVX NSCLC) 6.86 µM | GI50 (U251 CNS) 4.59 µM | GI50 (HCC-2998 colon) 18.7 µM | GI50 (OVCAR-4 ovarian) 8.33 µM
25.5 µM: TGI (IGROV1 ovarian)
69 µM: TGI (UACC-257 melanoma)
66.7 µM: TGI (SK-OV-3 ovarian)
24.4 µM: TGI (OVCAR-3 ovarian)
34.7 µM: TGI (SF-539 CNS)
44.6 µM: TGI (A498 renal)
85.5 µM: TGI (HS 578T breast)
> 100 µM: TGI (SN12C renal) | TGI (OVCAR-8 ovarian) | TGI (MDA-MB-231 breast) | TGI (ACHN renal) | TGI (A549 NSCLC) | TGI (K-562 leukemia) | TGI (KM12 colon) | TGI (HCT-15 colon) | TGI (NCI-H226 lung) | TGI (PC-3 prostate) | TGI (T-47D breast) | TGI (HOP-62 NSCLC) | TGI (786-0 renal) | TGI (NCI/ADR-RES ovarian) | TGI (NCI-H23 lung) | TGI (SK-MEL-28 melanoma) | TGI (SNB-19 CNS) | TGI (SW-620 colon) | TGI (HCT-116 colon) | TGI (MCF7 breast) | TGI (CCRF-CEM leukemia) | TGI (BT-549 breast) | TGI (COLO 205 colon) | TGI (MALME-3M melanoma) | TGI (NCI-H460 lung) | TGI (OVCAR-5 ovarian) | TGI (LOX IMVI melanoma) | TGI (TK-10 renal) | TGI (SF-268 CNS) | TGI (HT29 colon) | TGI (M14 melanoma) | TGI (MOLT-4 leukemia) | TGI (DU-145 prostate) | TGI (EKVX NSCLC) | TGI (U251 CNS) | TGI (HCC-2998 colon) | TGI (OVCAR-4 ovarian)
43.4 µM: TGI (CAKI-1 renal)
